Test results: patent US9150546B2, “Triazine derivative and pharmaceutical composition comprising the same” (SHIONOGI & CO., LTD., priority 2009, dated 2015)

Biological target: human P2X3 receptor (Homo sapiens (Human), UniProt P56373)
Test: P2X3 receptor inhibition, ATP-evoked Fluo-3 fluorescence (FDSS 3000)
Format: cell-based
Settings: C6BU-1 cell transfected with human P2X3 receptor gene

human P2X3 receptor, sequence (P56373 whole entry): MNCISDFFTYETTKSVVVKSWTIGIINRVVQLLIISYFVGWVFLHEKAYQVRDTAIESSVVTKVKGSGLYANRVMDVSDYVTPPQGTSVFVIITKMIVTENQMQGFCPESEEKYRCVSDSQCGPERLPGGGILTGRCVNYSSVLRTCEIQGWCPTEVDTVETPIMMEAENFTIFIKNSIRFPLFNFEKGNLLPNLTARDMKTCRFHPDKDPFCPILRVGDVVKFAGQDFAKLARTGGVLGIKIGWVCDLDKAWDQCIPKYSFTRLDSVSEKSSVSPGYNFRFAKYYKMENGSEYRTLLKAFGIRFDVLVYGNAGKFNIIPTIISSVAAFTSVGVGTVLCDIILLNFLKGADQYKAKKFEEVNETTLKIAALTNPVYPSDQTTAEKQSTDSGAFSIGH

SMILES	IC50 [µM]
CC(C)Oc1ccc(Nc2nc(=O)n(CCOC3CCCCO3)c(=O)n2Cc2ccc(Cl)cc2)cc1F (centres unmarked) [I-545]	0.006
COC(=O)C[C@@H](C)n1c(=O)[nH]/c(=N\c2ccc(OC(C)C)c(F)c2)n(Cc2ccc(Cl)cc2)c1=O [I-560]	0.007
COCCn1c(=O)nc(Nc2ccc(OC(C)C)c(F)c2)n(Cc2ccc(Cl)cc2)c1=O [I-280]	0.03
CCOc1ccc(/N=c2\[nH]c(=O)n(C[C@H](C)C(=O)O)c(=O)n2Cc2ccc(Cl)cc2)cc1Cl [I-539]	0.007
CCOc1ccc(/N=c2\[nH]c(=O)n(CC(C)(C)C(=O)O)c(=O)n2Cc2ccc(Cl)cc2)cc1 [I-542]	0.096
COC(=O)C(C)(C)Cn1c(=O)[nH]/c(=N\c2ccc(OC(C)C)c(F)c2)n(Cc2ccc(Cl)cc2)c1=O [I-403]	0.015
O=c1nc(Nc2ccc(OC(F)F)cc2)n(Cc2ccc(Cl)cc2)c(=O)n1CC(CO)CO [I-370]	0.154
CC(C)Oc1ccc(/N=c2\[nH]c(=O)n(CC(=O)NCC(N)=O)c(=O)n2Cc2ccc(Cl)cc2)cc1Cl [I-438]	0.005
CC(C)Oc1ccc(/N=c2\[nH]c(=O)n(CC(=O)NCC#N)c(=O)n2Cc2ccc(Cl)cc2)cc1Cl [I-435]	0.006
CCCn1c(=O)nc(Nc2ccc(OC(C)C)c(F)c2)n(Cc2ccccc2)c1=O [I-349]	0.113
CC(C)Oc1ccc(Nc2nc(=O)n(CCNC(N)=O)c(=O)n2Cc2ccc(Cl)cc2)cc1F [I-386]	0.041
CNC(=O)Cn1c(=O)[nH]/c(=N\c2ccc(OC(C)C)c(Cl)c2)n(Cc2ccc(Cl)cc2)c1=O [I-436]	0.008
CC(C)Oc1ccc(/N=c2\[nH]c(=O)n(CC(C)(C)C(=O)O)c(=O)n2CC2CCCC2)cc1Cl [I-554]	0.139
CC(C)Oc1ccc(Nc2nc(=O)n(CCOC3CCCCO3)c(=O)n2Cc2ccc(Cl)cc2)cc1Cl (centres unmarked) [I-350]	0.01
CC(C)Cc1ccc(Nc2nc(=O)n(CC(CO)CO)c(=O)n2Cc2ccc(Cl)cc2)cc1 [I-366]	0.046
CC(C)Oc1ccc(/N=c2\[nH]c(=O)n(Cc3ccc(C(=O)O)cc3)c(=O)n2Cc2ccc(Cl)cc2)cc1F [I-445]	0.008
CC(C)Oc1ccc(Nc2nc(=O)n(CC(CO)CO)c(=O)n2Cc2ccc(Cl)cc2)cc1 [I-368]	0.041
COc1ccc(/N=c2\[nH]c(=O)n(CC(C)(C)C(=O)O)c(=O)n2Cc2ccc(Cl)cc2)cc1C [I-447]	0.279
COC(=O)C(C)(C)Cn1c(=O)[nH]/c(=N\c2ccc(OC(C)C)c(Cl)c2)n(CC2CCCCC2)c1=O [I-547]	0.011

SMILES	IC50 [µM]
CCOc1ccc(Nc2nc(=O)n(CCCO)c(=O)n2Cc2ccc(Cl)cc2)cc1 [I-361]	0.076
CC(C)Oc1ccc(Nc2nc(=O)n(CC(C)(C)CO)c(=O)n2Cc2ccc(Cl)cc2)cc1F [I-332]	0.008
CCOc1ccc(/N=c2\[nH]c(=O)n(CC(C)(C)C(=O)OC)c(=O)n2Cc2ccc(Cl)cc2)cc1C [I-462]	0.004
CC(C)Oc1ccc(/N=c2\[nH]c(OCC(C)(C)C(=O)O)nc(=O)n2Cc2ccc(Cl)cc2)cc1Cl [II-010]	0.349
Cc1ccc(Cn2c(Nc3ccc(Oc4ccccc4)cc3)nc(=O)n(C(C)C)c2=O)cc1 [I-116]	0.484
CC(C)Oc1ccc(Nc2nc(=O)n(CCN3C(=O)CNC3=O)c(=O)n2Cc2ccc(Cl)cc2)cc1F [I-391]	0.133
COC(=O)C(C)(C)Cn1c(=O)[nH]/c(=N\c2ccc(OC(C)C)c(C)c2)n(Cc2ccc(Cl)cc2)c1=O [I-431]	0.004
CC(C)Cn1ccc2cc(/N=c3\[nH]c(=O)n(CC(C)(C)C(=O)O)c(=O)n3Cc3ccc(Cl)cc3)ccc21 [I-508]	0.511
Cc1cc2cc(/N=c3\[nH]c(=O)n(CC(C)(C)C(=O)O)c(=O)n3Cc3ccc(Cl)cc3)ccc2o1 [I-491]	0.027
COc1nc(=O)n(Cc2ccc(Cl)cc2)/c(=N/c2ccc(OC(C)C)c(Cl)c2)[nH]1 [I-433]	0.199
CC(C)Oc1ccc(Nc2nc(=O)n(C(C)C)c(=O)n2Cc2ccc(F)cc2)cc1C(F)(F)F [I-204]	0.558
Cc1cc2cc(/N=c3\[nH]c(=O)n(C[C@H](C)C(=O)O)c(=O)n3Cc3ccc(Cl)cc3)ccc2o1 [I-540]	0.027
COC(=O)CNC(=O)Cn1c(=O)[nH]/c(=N\c2ccc(OC(C)C)c(F)c2)n(Cc2ccc(Cl)cc2)c1=O [I-397]	0.019
COC(=O)[C@H](C)Cn1c(=O)[nH]/c(=N\c2ccc(OC(C)C)c(Cl)c2)n(Cc2ccc(Cl)cc2)c1=O [I-457]	0.003
CC(C)Oc1ccc(Nc2nc(=O)n(C(C)C)c(=O)n2Cc2ccc(F)cc2)cc1 [I-133]	0.339
CCOc1ccc(Nc2nc(=O)n(CC(CO)CO)c(=O)n2Cc2ccc(Cl)cc2)cc1 [I-371]	0.063
COC(=O)c1ccc(Nc2nc(=O)n(C(C)C)c(=O)n2Cc2ccc(F)cc2)cc1 [I-221]	0.276
CC(C)Oc1ccc(Nc2nc(=O)n(CCO)c(=O)n2Cc2ccc(Cl)cc2)cc1Cl [I-351]	0.015
Cc1cc(/N=c2\[nH]c(=O)n(C[C@H](C)C(=O)O)c(=O)n2CC2CCCCC2)ccc1OC(C)C [I-559]	0.097

SMILES	IC50 [µM]
CC(C)Oc1ccc(Nc2nc(=O)n(CCCO)c(=O)n2Cc2ccc(Cl)cc2)cc1Cl [I-362]	0.007
CC(C)Oc1ccc(Nc2nc(=O)n(CCO)c(=O)n2Cc2ccc(F)cc2F)cc1F [I-340]	0.336
CCOC(=O)C1(Cn2c(=O)[nH]/c(=N\c3ccc(OC(C)C)c(F)c3)n(Cc3ccc(Cl)cc3)c2=O)CC1 [I-422]	0.006
CC(C)Oc1ccc(Nc2nc(=O)n(CC3CCOCC3)c(=O)n2Cc2ccc(Cl)cc2)cc1F [I-275]	0.021
CC(C)Oc1ccc(Nc2nc(=O)n(C(C)C)c(=O)n2Cc2ccc(F)cc2)cc1C#N [I-227]	0.97
Cc1ccc(Cn2c(=O)n(CC(=O)NC3(C(=O)O)CC3)c(=O)[nH]/c2=N\c2ccc(OC(C)C)c(F)c2)cc1 [I-419]	0.071
CC(C)Oc1ccc(Nc2nc(=O)n(CCCN)c(=O)n2Cc2ccc(Cl)cc2)cc1F [I-317]	0.137
CC(C)Oc1ccc(Nc2nc(OCCO)nc(=O)n2Cc2ccc(Cl)cc2)cc1F [II-002]	0.079
COC(=O)C(C)(C)Cn1c(=O)[nH]/c(=N\c2cccc(Cl)c2)n(Cc2ccc(Cl)cc2)c1=O [I-466]	0.037
CC(C)Oc1ccc(Nc2nc(=O)n(CC(=O)NCCO)c(=O)n2Cc2ccc(Cl)cc2)cc1F [I-353]	0.018
CC(C)n1c(=O)nc(Nc2ccc(C#N)cc2)n(Cc2ccc(Cl)cc2)c1=O [I-372]	0.964
COC(=O)C[C@@H](C)n1c(=O)[nH]/c(=N\c2ccc(OC(C)C)c(Cl)c2)n(Cc2ccc(Cl)cc2)c1=O [I-556]	0.005
CCOC(=O)CCCn1c(=O)[nH]/c(=N\c2ccc(OC(C)C)c(Cl)c2)n(Cc2ccc(Cl)cc2)c1=O [I-498]	0.009
CC(C)Oc1ccc(Nc2nc(=O)n(C(C)C)c(=O)n2Cc2ccc(Cl)cc2)cn1 [I-394]	0.435
N#CCOc1ccc(Nc2nc(=O)n(CCO)c(=O)n2Cc2ccc(Cl)cc2)cc1 [I-330]	0.594
CC(C)Oc1ccc(/N=c2\[nH]c(=O)n(CCC(C)(C)C(=O)OCc3ccccc3)c(=O)n2Cc2ccc(Cl)cc2)cc1Cl [I-407]	0.027
Cc1cc(/N=c2\[nH]c(=O)n([C@@H](C)CC(=O)O)c(=O)n2Cc2ccc(Cl)cc2)ccc1OC(C)C [I-528]	0.053
CC(C)c1cccc(Nc2nc(=O)n(CCO)c(=O)n2Cc2ccc(Cl)cc2)c1 [I-378]	0.347
